# Results: patent publication US7317038B2, “Nerve regeneration promoters containing semaphorin inhibitor as the active ingredient” (Dainippon Sumitomo Pharma Co., Ltd., priority 2000, dated 2008)
# Entries after “also recorded” stand apart in the source; their conditions may differ.
# What was measured:
# [1] = system: adult rat models for olfactory nerve axotomy; experiment: In vivo nerve regeneration after olfactory nerve axotomy; conditions: for Positive section No. (which section from the vertex, average ± SE): HRP-positive glomerulus
# Method: Male Wister rats (6.5-week-old) were purchased from CHARLES RIVER JAPAN, INC. and bred under free feeding and water uptake in the dedicated breeding room. A sample solution was prepared by diluting SPF-3059-1 to lmg/ml with PBS and filled in an osmotic pressure pump (alzet 2004, ALZA co., USA). A pump filled with PBS was used as a control. The sample solution and the like were prepared on the day before the operation and the osmotic pressure pump was bathed in PBS and placed overnight at room temperature. Just before the operation, a L-cannula was connected to the one end of a silicon tube filled with the sample solution and the like, and the other end of the tube was connected to the pump. A rat was anesthetized with pentbarbital (50 mg/kg, intrapenitrially injected), and its head was fixed to the stereotaxic apparatus. The scalp was incised along the median and the cranium above the olfactory bulb was opened to expose the olfactory bulb (anterior part). In order to axotomize olfactory nerve, a knife (a razor was cut into 1.5 mm width) was inserted in between the olfactory bulb and the cribriform plate. The olfactory nerve which is projected on the upper olfactory bulb is axotomized by this handling. The L-cannula was fixed to the cranium-opening above the olfactory with surgical instant adhesive and dental cement so that the edge of cannula is located in the vicinity of the incision. The sample output was set to 6 μl (6 μg)/day. The pump was subcutaneously inserted in the dorsal neck and the incision was sutured. Then the animal was recovered.
# Two and three weeks after the operation, the rat anesthetized with pentbarbital was laid on its back and injected with 100 μl of 1% WGA-HRP/PBS (TOYOBO) into the nasal cavity using a microsyringe. 24 hours after the HRP injection, the rat was further anesthetized with pentbarbital (50 mg/kg, intrapenitrially injected) and was thoracically incised. […]
# Regeneration of olfactory nerves was quantitatively assessed by observing in which horizontal section of the olfactory bulb from the vertex did HRP-positive glomerulus emerge. […]
# [2] = biological target: T1, binding of Sema3A and Neuropilin-1 (Mus musculus, UniProt O08665); experiment: Sema3A-receptor-binding experiment (Sema3A-AP to Neuropilin-1 expressing COS7 cells); conditions: SPF-3059-1 0 to 10 μg/ml
# T1 construct: alkaline phosphatase was fused from the 758th amino acid to the C terminal side in said Sema3A; expressed in transfected cells; host or cells: COS7
# T1 sequence (O08665 21-758 limits assumed): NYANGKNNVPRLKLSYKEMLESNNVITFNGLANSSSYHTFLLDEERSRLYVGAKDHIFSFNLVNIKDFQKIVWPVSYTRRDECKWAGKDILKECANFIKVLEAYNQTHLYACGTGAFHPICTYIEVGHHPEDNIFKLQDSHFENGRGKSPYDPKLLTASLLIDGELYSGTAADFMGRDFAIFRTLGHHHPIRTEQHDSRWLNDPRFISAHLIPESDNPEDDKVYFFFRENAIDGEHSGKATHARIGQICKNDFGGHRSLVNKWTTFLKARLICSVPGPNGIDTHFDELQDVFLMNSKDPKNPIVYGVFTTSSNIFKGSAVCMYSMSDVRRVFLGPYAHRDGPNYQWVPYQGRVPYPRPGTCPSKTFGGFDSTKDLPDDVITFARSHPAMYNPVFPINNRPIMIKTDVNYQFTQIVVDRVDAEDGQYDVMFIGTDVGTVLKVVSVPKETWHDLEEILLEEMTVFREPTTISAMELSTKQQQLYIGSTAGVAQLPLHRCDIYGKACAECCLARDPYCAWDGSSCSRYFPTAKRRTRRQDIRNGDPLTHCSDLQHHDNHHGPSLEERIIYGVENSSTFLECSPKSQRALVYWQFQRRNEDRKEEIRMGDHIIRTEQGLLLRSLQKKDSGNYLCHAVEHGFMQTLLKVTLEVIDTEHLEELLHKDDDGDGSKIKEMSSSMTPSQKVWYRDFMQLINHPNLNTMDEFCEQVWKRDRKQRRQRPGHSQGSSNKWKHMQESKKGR
# Text: Whether SPF-3059-1 inhibits the binding of Sema3A and Neuropilin-1, which is a component constituting Sema3A receptor complex, was examined in the receptor-binding experiment. Neuropilin-1 and plexin Al are currently known as constituting components of Sema3A receptors. However, mainly Neuropilin-1 is known to contribute to Sema3A binding. Sema3A fused with alkaline phosphatase (human-derived: heat-resistance) (Sema3A-AP) was used as a ligand in the receptor-binding experiment and the amount bound to the receptor was detected with the alkaline phosphatase activity as an index. Mouse-derived Sema3A was used. A recombinant gene was generated in which alkaline phosphatase was fused from the 758th amino acid to the C terminal side in said Sema3A. This recombinant gene was then introduced into a COS7 cell where it was expressed and secreted and Sema3A-AP was prepared.
# The receptor-binding experiment was performed as described below. The Neuropilin-1 expressing plasmid (pUCSRα-Neuropilin-1) was introduced into COS7 cells and cultivated for 24 hours. These cells express Neuropilin-1 on the cell surface. […] The alkaline phosphatase activity derived from Sema3A-AP in the cell extract (=binding amount of Sema3A-AP) was determined. […] The solution was then measured for its absorbance at 405 nm (p-nitrophenol: generated from p-nitirophenyl phosphate with alkaline phosphatase).
compound,measurement,setting,value
CC(=O)c1c(C)c(C(=O)C2COc3cc(O)c(O)c(C(=O)O)c3C2=O)cc2c(=O)c3c(C(=O)O)c(O)c(O)cc3oc12 (stereo not shown) [SPF-3059-1],in vivo nerve-regeneration promoting action in olfactory nerve axotomy (in words),[1],marked nerve-regeneration promoting action
same,"Positive section No. (which section from the vertex, average ± SE)","[1]; Week 2, 6 μg/day by osmotic pump near incision",8.3 ± 1.9
same,"Positive section No. (which section from the vertex, average ± SE)","[1]; Week 3, 6 μg/day by osmotic pump near incision",5.2 ± 1.9
same,binding of Sema3A-AP to Neuropilin-1 expressing COS7 cells,[2],decrease in a concentration-dependent manner; also recorded: inhibits the binding of Sema3A-AP to Neuropilin-1 in a concentration-dependent manner
